The structures appear in SMILES notation.

The first experiment deals with T1, GST-FAK (N-terminal GST fusion with truncated human FAK (376-1052 (end) amino acids)) (Homo sapiens, UniProt Q05397).
T1 construct: truncated human FAK (376-1052 (end) amino acids)
T1 sequence (Q05397 376-1052): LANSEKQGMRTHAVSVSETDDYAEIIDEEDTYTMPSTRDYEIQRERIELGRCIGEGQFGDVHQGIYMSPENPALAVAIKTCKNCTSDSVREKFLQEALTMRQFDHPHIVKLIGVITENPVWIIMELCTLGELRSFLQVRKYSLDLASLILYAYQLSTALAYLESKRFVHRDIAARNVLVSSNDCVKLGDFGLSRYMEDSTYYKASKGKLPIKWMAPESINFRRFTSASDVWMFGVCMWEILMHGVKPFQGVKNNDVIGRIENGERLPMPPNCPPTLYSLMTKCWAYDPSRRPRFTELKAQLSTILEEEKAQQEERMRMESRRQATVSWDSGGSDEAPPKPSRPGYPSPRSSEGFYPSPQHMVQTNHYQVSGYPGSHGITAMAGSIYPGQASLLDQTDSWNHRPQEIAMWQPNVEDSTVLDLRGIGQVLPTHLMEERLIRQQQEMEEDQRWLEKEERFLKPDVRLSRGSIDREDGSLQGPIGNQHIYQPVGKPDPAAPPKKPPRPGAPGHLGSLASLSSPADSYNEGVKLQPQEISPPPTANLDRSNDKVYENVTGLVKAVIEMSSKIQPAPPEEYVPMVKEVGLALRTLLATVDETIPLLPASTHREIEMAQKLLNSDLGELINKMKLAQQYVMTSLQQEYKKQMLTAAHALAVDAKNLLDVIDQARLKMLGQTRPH
In words: Biochemical enzyme assay for FAK activity (Caliper LC3000 mobility shift). Particulars: Table 1; 100 uM ATP; read-out: FAK IC50. A digest of the protocol:
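Inhibitor dose series in DMSO were incubated 90 min at 25 °C with truncated GST-tagged human FAK (0.067 ng/µl) and FITC-labelled peptide substrate (1 µM), with ATP at 100 µM and FERM peptide at 1 mM (pH 7.5 HEPES). After EDTA quench, phosphorylated and unphosphorylated peptides were resolved electrophoretically. Percent conversion was fitted for IC50.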
For `Fc1cncc(-c2nccc(NCc3cccc(Oc4cnccn4)c3)n2)c1` [Compound 9, [2-(5-Fluoro-pyridin-3-yl)-pyrimidin-4-yl]-[3-(pyrazin-2-yloxy)-benzyl]-amine], the IC50 is greater than 10000 nM.
On the same count and under the same terms, the result for `COc1cncc(-c2nccc(NCc3cccc4c3OC(C)(C)C4)n2)c1` [Compound 17, (2,2-Dimethyl-2,3-dihydro-benzofuran-7-ylmethyl)-[2-(5-methoxy-pyridin-3-yl)-pyrimidin-4-yl]-amine] reads greater than 10000 nM.
Same read-out and setting: the result for `FC(F)(F)c1cncc(-c2nccc(NCc3ccc(N4CCOCC4)cc3)n2)c1` [Compound 28, (4-Morpholin-4-yl-benzyl)-[2-(5-trifluoromethyl-pyridin-3-yl)-pyrimidin-4-yl]-amine] reads greater than 10000 nM.
As to `FC(F)(F)c1cncc(-c2nccc(NCc3ccc4c(c3)OCCO4)n2)c1` [Compound 30, (2,3-Dihydro-benzo[1,4]dioxin-6-ylmethyl)-[2-(5-trifluoromethyl-pyridin-3-yl)-pyrimidin-4-yl]-amine], the concentration for half-maximal inhibition (IC50) was greater than 10000 nM.
With `COc1cncc(-c2nccc(NCc3ccc4c(c3)OCCO4)n2)c1` [Compound 6, (2,3-Dihydro-benzo[1,4]dioxin-6-ylmethyl)-[2-(5-methoxy-pyridin-3-yl)-pyrimidin-4-yl]-amine], the half-maximal inhibitory concentration (IC50) is greater than 10000 nM.
Turning to `Fc1cncc(-c2nccc(NCc3ccc4c(c3)OCCO4)n2)c1` [Compound 12, (2,3-Dihydro-benzo[1,4]dioxin-6-ylmethyl)-[2-(5-fluoro-pyridin-3-yl)-pyrimidin-4-yl]-amine], the half-inhibitory concentration (IC50) was greater than 10000 nM.
Same read-out and setting: the result for `Clc1cncc(-c2nccc(NCC3CCCCC3)n2)c1` [Compound 37, [2-(5-Chloro-pyridin-3-yl)-pyrimidin-4-yl]-cyclohexylmethyl-amine] reads 1000 to 10000 nM.
As to `O=C(c1cncc(-c2nccc(NCc3ccc(Oc4ccc(F)cc4)cc3)n2)c1)N1CCOCC1` [Compound 13, (5-{4-[4-(4-Fluoro-phenoxy)-benzylamino]-pyrimidin-2-yl}-pyridin-3-yl)-morpholin-4-yl-methanone], the 50% inhibitory concentration (IC50) is greater than 10000 nM.

Staying with this experiment, now noted: Table 2; 100 uM ATP; read-out: FAK IC50.
Consider `Cc1nc(CCNC(=O)c2cc(NCc3ccc(F)cc3F)nc(-c3cncc(C(F)(F)F)c3)n2)cs1` [Compound 73, 6-(2,4-Difluoro-benzylamino)-2-(5-trifluoromethyl-pyridin-3-yl)-pyrimidine-4-carboxylic acid [2-(2-methyl-thiazol-4-yl)-ethyl]-amide], for which the half-inhibitory concentration (IC50) lay in the range of 100 to 1000 nM.
Regarding `O=C(NCCn1cccn1)c1cc(NCc2ccc(F)cc2F)nc(-c2cncc(C(F)(F)F)c2)n1` [Compound 71, 6-(2,4-Difluoro-benzylamino)-2-(5-trifluoromethyl-pyridin-3-yl)-pyrimidine-4-carboxylic acid (2-pyrazol-1-yl-ethyl)-amide], the half-maximal inhibitory concentration (IC50) was less than 100 nM.
As to `NC(=O)CCNc1cc(NCc2ccc(F)cc2F)nc(-c2cncc(C(F)(F)F)c2)n1` [Compound 61, 3-[6-(2,4-Difluoro-benzylamino)-2-(5-trifluoromethyl-pyridin-3-yl)-pyrimidin-4-ylamino]-propionamide], the half-inhibitory concentration (IC50) was in the range of 100 to 1000 nM.
On to `CC(=O)NCCNC(=O)c1cc(NCc2ccc(F)cc2F)nc(-c2cncc(C(F)(F)F)c2)n1` [Compound 69, 6-(2,4-Difluoro-benzylamino)-2-(5-trifluoromethyl-pyridin-3-yl)-pyrimidine-4-carboxylic acid (2-acetylamino-ethyl)-amide], for which the half-maximal inhibitory concentration (IC50) is less than 100 nM.

Staying with this experiment, now noted: Table 3; 100 uM ATP; read-out: FAK IC50.
For the compound `Cc1cc(NCc2cccc(F)c2)nc(-c2cccnc2)n1` [Compound 142, N-(3-Fluorobenzyl)-6-methyl-2-pyridin-3-ylpyrimidin-4-amine], the 50% inhibitory concentration (IC50) is greater than 10000 nM.
On to `CS(=O)(=O)c1ccccc1CNc1ccnc(-c2cccnc2N)n1` [Compound 87, 2-(2-Aminopyridin-3-yl)-N-[2-(methylsulfonyl)benzyl]pyrimidin-4-amine], for which the half-inhibitory concentration (IC50) was 1000 to 10000 nM.
As to `CNC[C@@H](Nc1ccnc(-c2cccnc2N)n1)c1ccccc1` [Compound 146, (S)-N1-[2-(2-Amino-pyridin-3-yl)-pyrimidin-4-yl]-N2-methyl-1-phenyl-ethane-1,2-diamine], the IC50 was greater than 10000 nM.
Still for that read-out and setting: the result for `Nc1ncccc1-c1nccc(NCc2ccc(Cl)cc2C(F)(F)F)n1` [Compound 109, 2-(2-Aminopyridin-3-yl)-N-[4-chloro-2-(trifluoromethyl)benzyl]pyrimidin-4-amine] reads 100 to 1000 nM; that for `Nc1ncccc1-c1nccc(NCc2ccncc2)n1` [Compound 128, 2-(2-Aminopyridin-3-yl)-N-(pyridin-4-ylmethyl)pyrimidin-4-amine], greater than 10000 nM; that for `FC(F)(F)c1cncc(-c2nccc(NCc3cccc4nsnc34)n2)c1` [Compound 133, N-(2,1,3-Benzothiadiazol-4-ylmethyl)-2-[5-(trifluoromethyl)pyridin-3-yl]pyrimidin-4-amine], less than 100 nM.
For the compound `Nc1ncccc1-c1nccc(NCc2ccccc2F)n1` [Compound 78, 2-(2-Aminopyridin-3-yl)-N-(2-fluorobenzyl)pyrimidin-4-amine], the 50% inhibitory concentration (IC50) fell in the range of 100 to 1000 nM.
For `C[C@H](Nc1ccnc(-c2cccnc2N)n1)c1ccccc1C(F)(F)F` [Compound 138, 2-(2-Aminopyridin-3-yl)-N-{(1S)-1-[2-(trifluoromethyl)phenyl]ethyl}pyrimidin-4-amine], the IC50 fell in the range of 1000 to 10000 nM.
In the case of `Nc1ncccc1-c1nccc(NCc2cc(F)ccc2C(F)(F)F)n1` [Compound 102, 2-(2-Aminopyridin-3-yl)-N-[5-fluoro-2-(trifluoromethyl)benzyl]pyrimidin-4-amine], the concentration for half-maximal inhibition (IC50) lay within 1000 to 10000 nM.

The experiment is the same for the next values; noted with them: Table 5; 100 uM ATP; read-out: FAK IC50.
On to `FC(F)(F)c1cccc(CCNc2ccnc(-c3cncc(C(F)(F)F)c3)n2)c1` [Compound 191, [2-(3-Trifluoromethyl-phenyl)-ethyl]-[2-(5-trifluoromethyl-pyridin-3-yl)-pyrimidin-4-yl]-amine], for which the IC50 was in the range of 1000 to 10000 nM.
Same read-out and setting: with `Fc1ccc(CNc2nccc(-c3cncc(C(F)(F)F)c3)n2)c(F)c1` [Compound 248, (2,4-Difluoro-benzyl)-[4-(5-trifluoromethyl-pyridin-3-yl)-pyrimidin-2-yl]-amine] the figure was less than 100 nM; with `Fc1ccc(CNc2nc(-c3cncc(C(F)(F)F)c3)nc3c2ncn3C2CCCCO2)c(F)c1` (stereo not shown) [Compound 243, (2,4-Difluoro-benzyl)-[9-(tetrahydro-pyran-2-yl)-2-(5-trifluoromethyl-pyridin-3-yl)-9H-purin-6-yl]-amine], 100 to 1000 nM; with `COc1cncc(-c2nccc(NCc3ccc(F)cc3C(F)(F)F)n2)c1` [Compound 204, (4-Fluoro-2-trifluoromethyl-benzyl)-[2-(5-methoxy-pyridin-3-yl)-pyrimidin-4-yl]-amine], less than 100 nM.
In the case of `N#Cc1cncc(-c2nccc(NCc3ccccn3)n2)c1` [Compound 220, 5-{4-[(Pyridin-2-ylmethyl)-amino]-pyrimidin-2-yl}-nicotinonitrile], the IC50 was 1000 to 10000 nM.
Still for that read-out and setting: with `COc1cncc(-c2nccc(NCc3cc(F)ccc3F)n2)c1` [Compound 226, (2,5-Difluoro-benzyl)-[2-(5-methoxy-pyridin-3-yl)-pyrimidin-4-yl]-amine] the figure was 100 to 1000 nM; with `CS(=O)(=O)c1ccccc1-c1ccccc1CNc1ccnc(-c2cncc(C(F)(F)F)c2)n1` [Compound 196, (2′-Methanesulfonyl-biphenyl-2-ylmethyl)-[2-(5-trifluoromethyl-pyridin-3-yl)-pyrimidin-4-yl]-amine], 1000 to 10000 nM; with `COc1cncc(-c2nccc(NCc3ccncc3)n2)c1` [Compound 230, [2-(5-Methoxy-pyridin-3-yl)-pyrimidin-4-yl]-pyridin-4-ylmethyl-amine], greater than 10000 nM.
Still for that read-out and setting: the result for `CN1CCN(C(=O)c2cc(NCc3ccc(F)cc3F)nc(-c3cncc(C(F)(F)F)c3)n2)CC1` [Compound 259, [6-(2,4-Difluoro-benzylamino)-2-(5-trifluoromethyl-pyridin-3-yl)-pyrimidin-4-yl]-(4-methyl-piperazin-1-yl)-methanone] reads 100 to 1000 nM; that for `COc1cncc(-c2nccc(NCc3ccccc3)n2)c1` [Compound 227, Benzyl-[2-(5-methoxy-pyridin-3-yl)-pyrimidin-4-yl]-amine], 100 to 1000 nM.
As for `FC(F)(F)c1cncc(-c2nccc(NCCc3ccccc3Cl)n2)c1` [Compound 198, [2-(2-Chloro-phenyl)-ethyl]-[2-(5-trifluoromethyl-pyridin-3-yl)-pyrimidin-4-yl]-amine], the IC50 was 1000 to 10000 nM.
In the case of `Fc1ccc(CNc2cc(-c3cncc(C(F)(F)F)c3)ncn2)c(F)c1` [Compound 254, (2,4-Difluoro-benzyl)-[6-(5-trifluoromethyl-pyridin-3-yl)-pyrimidin-4-yl]-amine], the concentration for half-maximal inhibition (IC50) was greater than 10000 nM.
Take `O=C(Nc1cccnc1)c1cc(NCc2ccc(F)cc2F)nc(-c2cncc(C(F)(F)F)c2)n1` [Compound 261, 6-(2,4-Difluoro-benzylamino)-2-(5-trifluoromethyl-pyridin-3-yl)-pyrimidine-4-carboxylic acid pyridin-3-ylamide]: the IC50 was 100 to 1000 nM.
Turning to `COc1cncc(-c2nccc(NCc3cc(F)c(F)cc3F)n2)c1` [Compound 224, [2-(5-Methoxy-pyridin-3-yl)-pyrimidin-4-yl]-(2,4,5-trifluoro-benzyl)-amine], the IC50 is 100 to 1000 nM.
On to `Fc1ccc(CNc2cc(-c3cncc(C(F)(F)F)c3)ncn2)c(C(F)(F)F)c1` [Compound 252, (4-Fluoro-2-trifluoromethyl-benzyl)-[6-(5-trifluoromethyl-pyridin-3-yl)-pyrimidin-4-yl]-amine], for which the half-inhibitory concentration (IC50) fell in the range of 1000 to 10000 nM.
For `COc1cncc(-c2nccc(NCCc3ccccc3)n2)c1` [Compound 187, [2-(5-Methoxy-pyridin-3-yl)-pyrimidin-4-yl]-phenethyl-amine], the IC50 was greater than 10000 nM.

For the origin of these results see patent US9199962B2, “Substituted azaheterocycles for the treatment of cancer” (Merck Patent GmbH, priority 2011, dated 2015).
